Results: the supplement of paper PMC11061612

How the values were obtained:
Assay in all cases: Bliss excess, mean over the matrix (fraction); higher = more synergy
[1] = test system: LOU-NH91 (Squamous Cell Lung Carcinoma)
In short: (§1)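 Cell lines in DMEM/F12 or RPMI with 10% FBS were plated in 1536-well plates, held 24 hours at 37°C, 5% CO2, then given two-drug dose matrices for 72 hours (DMSO typically 0.2%). Viability was read by CellTiter-Glo 2.0 luminescence and scaled as inhibition from 0 (vehicle wells) to 1 (blank wells). Combination Emax is the second-highest inhibition in the matrix; Bliss excess is observed combination effect minus expected EA + EB − EA·EB, EA and EB being single-agent effects.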

[2] = test system: H-EMC-SS (Chondrosarcoma)
In short: as §1

[3] = test system: OCUM-1 (Gastric Carcinoma)
In short: as §1

[4] = test system: JHH-7 (Hepatocellular Carcinoma)
In short: as §1

[5] = test system: OVISE (Ovarian Carcinoma)
In short: as §1

[6] = test system: KLE (Endometrial Carcinoma)
In short: as §1

[7] = test system: EBC-1 (Squamous Cell Lung Carcinoma)
In short: as §1

[8] = test system: PF-382 (T-Lymphoblastic Leukemia)
In short: as §1

[9] = test system: NCI-H1573 (Lung Adenocarcinoma)
In short: as §1

[10] = test system: VMRC-LCD (Lung Adenocarcinoma)
In short: as §1

[11] = test system: KYSE-50 (Esophageal Squamous Cell Carcinoma)
In short: as §1

[12] = test system: KINGS-1 (Low Grade Glioma)
In short: as §1

[13] = test system: HC-1 (Other Blood Carcinomas)
In short: as §1

[14] = test system: MFE-319 (Endometrial Carcinoma)
In short: as §1

GOTO (Neuroblastoma) = test system: GOTO (Neuroblastoma)
In short: as §1

EW-3 (Ewing's Sarcoma) = test system: EW-3 (Ewing's Sarcoma)
In short: as §1

[15] = test system: BV-173 (Chronic Myelogenous Leukemia)
In short: as §1

[16] = test system: KP-2 (Pancreatic Carcinoma)
In short: as §1

[17] = test system: KU-19-19 (Bladder Carcinoma)
In short: as §1

[18] = test system: SCC-3 (B-Cell Non-Hodgkin's Lymphoma)
In short: as §1

| Structure (SMILES) | Bliss excess [1] | Bliss excess [2] | Bliss excess [3] | Bliss excess [4] | Bliss excess [5] | Bliss excess [6] | Bliss excess [7] | Bliss excess [8] | Bliss excess [9] | Bliss excess [10] | Bliss excess [11] | Bliss excess [12] | Bliss excess [13] | Bliss excess [14] | Bliss excess (GOTO (Neuroblastoma)) | Bliss excess (EW-3 (Ewing's Sarcoma)) | Bliss excess [15] | Bliss excess [16] | Bliss excess [17] | Bliss excess [18] |
| --- | --- | --- | --- | --- | --- | --- | --- | --- | --- | --- | --- | --- | --- | --- | --- | --- | --- | --- | --- | --- |
| Cc1cc2ncnn2cc1Nc1ncc2c(n1)n(C1CCOCC1)c(=O)n2C [AZD7648] + O=C(c1cc(Cc2n[nH]c(=O)c3ccccc23)ccc1F)N1CCN(C(=O)C2CC2)CC1 [Olaparib] (first compound max 10 µM, 7x7, partner max 10 µM) | -0.0301 | -0.0759 | -0.0571 | -0.0356 | -0.0526 | -0.013 | -0.0167 | 0.0443 | -0.0205 | -0.0443 | -0.0246 | -0.0561 | -0.0389 | -0.0499 | 0.0388 | -0.0743 | -0.0062 | -0.0017 | -0.0153 | -0.0757 |
| NC1(C(=O)N[C@@H](CCO)c2ccc(Cl)cc2)CCN(c2ncnc3[nH]ccc23)CC1 [Capivasertib] + CCN(CCO)CCCOc1ccc2c(Nc3cc(CC(=O)Nc4cccc(F)c4)[nH]n3)ncnc2c1 [AZD2811] (first compound max 10 µM, 7x7, partner max 1 µM) | -0.0075 | -0.0105 | 0.0378 | -0.0692 | 0.0015 | -0.0611 | 0.0429 | -0.0497 | -0.0074 | 0.0111 | 0.0278 | -0.0012 | -0.0564 | -0.107 | 0.0047 | 0.0117 | -0.031 | -0.0433 | 0.0011 | 0.0443 |
| Cc1c2c(nn1C)CSCc1cc(n(C)n1)CSc1cc(c3ccccc3c1)OCCCc1c(C(=O)O)n(C)c3c-2c(Cl)ccc13 [AZD5991] + Cn1cnc2c(F)c(Nc3ccc(Br)cc3Cl)c(C(=O)NOCCO)cc21 [Selumetinib] (first compound max 1 µM, 7x7, partner max 3 µM) | -0.025 | -0.017 | -0.0034 | -0.0649 | -0.0588 | -0.0374 | -0.0019 | 0.0006 | -0.0059 | -0.0229 | -0.0049 | -0.0147 | 0.0827 | -0.0233 | 0.0177 | -0.0435 | 0.0265 | 0.137 | 0.0759 | 0.0783 |
| CC1(C)CCC(CN2CCN(c3ccc(C(=O)NS(=O)(=O)c4ccc(NCC5CCOCC5)c([N+](=O)[O-])c4)c(Oc4cnc5[nH]ccc5c4)c3)CC2)=C(c2ccc(Cl)cc2)C1 [Venetoclax] + C[C@@H](Nc1cc(F)cc(F)c1)c1cc(C(=O)N(C)C)cc2c(=O)cc(N3CCOCC3)oc12 [AZD8186] (first compound max 1 µM, 7x7, partner max 3 µM) | -0.0647 | -0.0159 | -0.0263 | -0.0516 | -0.0296 | 0.0002 | -0.0233 | 0.0111 | -0.0247 | -0.0457 | -0.0295 | 0.0081 | 0.0693 | -0.0419 | -0.0334 | 0.0336 | -0.0477 | -0.0312 | -0.0402 | 0.0263 |
| Cc1c2c(nn1C)CSCc1cc(n(C)n1)CSc1cc(c3ccccc3c1)OCCCc1c(C(=O)O)n(C)c3c-2c(Cl)ccc13 [AZD5991] + C[C@@H](Nc1cc(F)cc(F)c1)c1cc(C(=O)N(C)C)cc2c(=O)cc(N3CCOCC3)oc12 [AZD8186] (first compound max 1 µM, 7x7, partner max 3 µM) | -0.0542 | -0.0325 | -0.0302 | -0.0439 | 0.0069 | 0.0077 | 0.0298 | 0.005 | -0.0303 | -0.024 | 0.0319 | -0.0111 | 0.0381 | 0.0209 | -0.0589 | -0.0129 | -0.0917 | 0.0193 | 0.0033 | -0.0036 |
| COc1cccc(OCCCN)c1-c1cc(Nc2cnc(C#N)cn2)n[nH]1 [Prexasertib] + CCc1c2c(nc3ccc(O)cc13)-c1cc3c(c(=O)n1C2)COC(=O)[C@]3(O)CC [SN-38] (first compound max 1 µM, 7x7, partner max 0.3 µM) | -0.0648 | -0.0116 | -0.101 | 0.116 | -0.136 | 0.0285 | -0.0694 | -0.0583 | 0.0357 | 0.023 | 0.0461 | 0.0121 | -0.0005 | 0.0161 | -0.058 | -0.0732 | -0.0594 | 0.0983 | 0.0024 | 0.0056 |
| NC1(C(=O)N[C@@H](CCO)c2ccc(Cl)cc2)CCN(c2ncnc3[nH]ccc23)CC1 [Capivasertib] + CC(=O)c1c(C)c2cnc(Nc3ccc(N4CCNCC4)cn3)nc2n(C2CCCC2)c1=O [Palbociclib] (first compound max 10 µM, 7x7, partner max 10 µM) | -0.0617 | -0.0375 | -0.0194 | -0.0238 | -0.0235 | -0.0214 | 0.06 | -0.0151 | -0.0204 | -0.0153 | -0.0129 | 0.0102 | -0.0705 | -0.0339 | 0.0599 | 0.0062 | -0.0452 | -0.0261 | 0.0041 | 0.0001 |
